Measured values published in ChEMBL document CHEMBL1134860, “Novel thiophene derivatives for the treatment of benign prostatic hyperplasia” (Bioorg Med Chem Lett, 2002).
pKi: −log10 of the molar value.

Tests used:
[1] = target: Alpha adrenergic receptor (1a and 1d) (Homo sapiens) (UniProt P35348+P25100); experiment: Relative binding to alpha1d and alpha-1a receptors (ratio of Ki); assay type: protein assay
[2] = target: Adrenergic receptors; alpha-1 A & B (Homo sapiens) (UniProt P35348+P35368); experiment: Relative binding to alpha-1b and alpha-1a receptors (ratio of Ki); assay type: protein assay
[3] = target: T1, Alpha-1D adrenergic receptor (Homo sapiens, UniProt P25100); experiment: Displacement of [125I]-HEAT from human Alpha-1D adrenergic receptor expressed in COS cells membranes; assay type: cell membranes
T1 sequence (P25100 whole entry): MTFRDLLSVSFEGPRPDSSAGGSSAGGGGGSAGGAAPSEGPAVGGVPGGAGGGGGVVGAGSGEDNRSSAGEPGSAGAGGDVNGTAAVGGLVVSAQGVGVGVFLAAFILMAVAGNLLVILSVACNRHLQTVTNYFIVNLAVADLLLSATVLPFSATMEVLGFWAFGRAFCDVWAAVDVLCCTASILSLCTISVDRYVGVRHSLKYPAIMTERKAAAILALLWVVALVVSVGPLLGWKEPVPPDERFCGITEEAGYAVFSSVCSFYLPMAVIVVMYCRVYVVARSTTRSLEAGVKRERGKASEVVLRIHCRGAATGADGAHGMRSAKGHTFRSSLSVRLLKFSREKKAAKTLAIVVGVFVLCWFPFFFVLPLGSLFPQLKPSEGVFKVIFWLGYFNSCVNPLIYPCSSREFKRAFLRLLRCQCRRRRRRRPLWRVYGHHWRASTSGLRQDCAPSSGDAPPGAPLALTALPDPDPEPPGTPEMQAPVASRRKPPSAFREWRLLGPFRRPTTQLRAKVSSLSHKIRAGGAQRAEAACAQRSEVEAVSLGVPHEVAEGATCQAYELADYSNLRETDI

[4] = target: T2, Alpha-1A adrenergic receptor (Homo sapiens, UniProt P35348); experiment: Displacement of [125I]HEAT from COS cell membranes expressing human Alpha-1A adrenergic receptor
T2 sequence (P35348 whole entry): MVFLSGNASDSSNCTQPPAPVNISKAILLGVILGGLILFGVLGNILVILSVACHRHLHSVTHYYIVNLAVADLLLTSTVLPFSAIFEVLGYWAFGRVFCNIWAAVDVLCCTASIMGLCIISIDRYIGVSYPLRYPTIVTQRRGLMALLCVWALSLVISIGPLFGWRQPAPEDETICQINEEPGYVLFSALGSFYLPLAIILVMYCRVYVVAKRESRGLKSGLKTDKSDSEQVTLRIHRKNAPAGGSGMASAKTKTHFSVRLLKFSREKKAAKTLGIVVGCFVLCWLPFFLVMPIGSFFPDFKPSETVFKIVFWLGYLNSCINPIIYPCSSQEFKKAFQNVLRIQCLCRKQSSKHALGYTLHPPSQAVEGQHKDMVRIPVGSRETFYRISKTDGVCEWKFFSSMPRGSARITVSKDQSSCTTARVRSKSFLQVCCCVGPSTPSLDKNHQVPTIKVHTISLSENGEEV

[5] = target: T3, Alpha-1B adrenergic receptor (Homo sapiens, UniProt P35368); experiment: Displacement of [125I]HEAT from COS cells membranes expressing human Alpha-1B adrenergic receptor; assay type: cell membranes
T3 sequence (P35368 whole entry): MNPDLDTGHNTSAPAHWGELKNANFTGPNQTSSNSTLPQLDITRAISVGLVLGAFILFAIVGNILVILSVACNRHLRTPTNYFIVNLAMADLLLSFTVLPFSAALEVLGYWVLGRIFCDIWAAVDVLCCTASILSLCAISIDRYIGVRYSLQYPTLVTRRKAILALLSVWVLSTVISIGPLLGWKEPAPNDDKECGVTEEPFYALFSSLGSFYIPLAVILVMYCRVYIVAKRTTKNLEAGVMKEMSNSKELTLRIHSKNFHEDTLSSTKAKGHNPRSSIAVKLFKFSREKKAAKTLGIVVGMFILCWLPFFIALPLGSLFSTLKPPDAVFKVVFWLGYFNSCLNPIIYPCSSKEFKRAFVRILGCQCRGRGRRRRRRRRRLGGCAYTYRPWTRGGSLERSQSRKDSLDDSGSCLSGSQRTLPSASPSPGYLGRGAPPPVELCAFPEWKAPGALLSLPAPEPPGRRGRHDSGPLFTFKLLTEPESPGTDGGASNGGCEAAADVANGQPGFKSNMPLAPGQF

Structure (SMILES) | Ratio [1] | Ratio [2] | pKi [3] | pKi [4] | pKi [5]
CC(C)Oc1ccccc1N1CCN(Cc2cc(CO)cs2)CC1 | 1 | > 15 | 6.47 | 6.48 | < 5.30
COc1ccccc1N1CCN(Cc2ccc(C=O)s2)CC1 | 0.4 | 3.2 | 6.58 | 6.24 | 5.73
CC(C)Oc1ccccc1N1CCN(Cc2cc(CN3CCCCCC3=O)cs2)CC1 | 26 | 342 | 7.33 | 8.74 | 6.21
CC(C)Oc1ccccc1N1CCN(Cc2cc(CN3CCCC3=O)cs2)CC1 | 147 | 1520 | 7.60 | 9.70 | 6.59
CC(C)Oc1ccccc1N1CCN(Cc2cc(CN3CCCCC3=O)cs2)CC1 | 184 | 769 | 7.04 | 9.30 | 6.42
COc1ccccc1N1CCN(Cc2ccc(CN3CCCCCC3=O)s2)CC1 | 0.7 | > 278 | 7.89 | 7.74 | < 5.30
CC(C)Oc1ccccc1N1CCN(Cc2ccc(CN3CCCCC3=O)s2)CC1 | 54 | 1250 | 7.74 | 9.52 | 6.38
COc1ccccc1N1CCN(Cc2ccc(Br)s2)CC1 | 0.7 | 6 | 7.04 | 6.89 | 6.12

Now from value to compound:

Ratio [1] | Ratio [2] | pKi [3] | pKi [4] | pKi [5] | Structure (SMILES)
0.3 | 6.1 | 6.89 | 6.38 | 5.59 | COc1ccccc1N1CCN(Cc2ccc(CN3CCCCC3O)s2)CC1 (stereo not given)
0.7 | 5.3 | 6.86 | 6.69 | 5.97 | COc1ccccc1N1CCN(Cc2ccc(CO)s2)CC1
0.9 | > 357 | 7.92 | 7.85 | < 5.30 | COc1ccccc1N1CCN(Cc2ccc(CN3CCCCC3=O)s2)CC1
0.6 | > 125 | 7.64 | 7.40 | < 5.30 | COc1ccccc1N1CCN(Cc2ccc(CN3CCCC3=O)s2)CC1
1.3 | 49 | 7.82 | 7.92 | 6.23 | COC(=O)[C@@H]1CCCN1Cc1ccc(CN2CCN(c3ccccc3OC)CC2)s1
